This assay addresses T1, Dual specificity protein kinase TTK (Homo sapiens, UniProt P33981).
T1 sequence (P33981 whole entry): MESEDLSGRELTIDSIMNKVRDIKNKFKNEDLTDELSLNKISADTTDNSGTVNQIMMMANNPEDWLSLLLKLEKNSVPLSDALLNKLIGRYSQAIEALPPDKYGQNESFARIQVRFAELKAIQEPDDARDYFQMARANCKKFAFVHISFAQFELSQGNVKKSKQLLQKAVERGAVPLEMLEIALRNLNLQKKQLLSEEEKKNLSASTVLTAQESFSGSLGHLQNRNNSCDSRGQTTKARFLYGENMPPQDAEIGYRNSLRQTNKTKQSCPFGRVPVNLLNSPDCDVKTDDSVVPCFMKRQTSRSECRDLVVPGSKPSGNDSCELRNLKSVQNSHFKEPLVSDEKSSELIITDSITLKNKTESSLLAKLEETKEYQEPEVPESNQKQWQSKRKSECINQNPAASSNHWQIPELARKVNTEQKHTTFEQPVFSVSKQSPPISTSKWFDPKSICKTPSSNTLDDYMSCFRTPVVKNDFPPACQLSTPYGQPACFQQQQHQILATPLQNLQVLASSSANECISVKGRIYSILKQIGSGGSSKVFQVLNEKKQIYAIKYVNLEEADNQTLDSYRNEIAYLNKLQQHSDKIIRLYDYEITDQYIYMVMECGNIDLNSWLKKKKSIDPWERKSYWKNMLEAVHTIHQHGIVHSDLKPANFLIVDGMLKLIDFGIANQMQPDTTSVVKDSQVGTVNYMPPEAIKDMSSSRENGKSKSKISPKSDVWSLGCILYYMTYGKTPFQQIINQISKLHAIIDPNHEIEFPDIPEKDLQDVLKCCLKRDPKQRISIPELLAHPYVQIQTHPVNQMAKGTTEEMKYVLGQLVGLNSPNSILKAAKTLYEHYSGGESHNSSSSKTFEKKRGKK
The experiment in a line: The reaction was carried out for 60 min at room temperature and stopped by the addition of buffer (10 μl) containing 20 mM EDTA, 0.05% (v/v) Brij-35, in 0.1M HEPES-buffered saline (Free acid, Sigma, UK). […] The % inhibition of the compounds is calculated relative to the means of selected control wells. […] The % inhibitions at each concentration are then fitted to a 4 parameter logistic fit.
For the compound `CCOc1cc(-c2nncn2C)ccc1Nc1ncc2cc(C)nc(N3CCC(C)(OC)CC3)c2n1`, the half-maximal inhibitory concentration (IC50) is 3 nM. Turning to `CCOc1cc(-c2nncn2C)ccc1Nc1ncc2cc(C)nc(N3CC(F)(F)C3)c2n1`, the IC50 is 6 nM. As for `CCOc1cc(-c2nncn2C)ccc1Nc1ncc2cc(C)nc(N3CCC(C)(C#N)C3)c2n1` (stereo not drawn), the IC50 was 3 nM. As to `CCOc1cc(-c2nncn2C)ccc1Nc1ncc2cc(C)nc(N3CC(O)(CC)C3)c2n1`, the concentration for half-maximal inhibition (IC50) was 4 nM. Regarding `CCOc1cc(-c2nncn2C)ccc1Nc1ncc2cc(C)nc(N3CC4(CCCC4)C3)c2n1`, the IC50 is 2 nM.

As for `COc1cc(-c2cnc(C)n2C)ccc1Nc1ncc2cc(C)nc(NCC3(C)CCOC3)c2n1` (stereo not drawn), the half-inhibitory concentration (IC50) was 2 nM.

For `CCOc1cc(-c2nncn2C)ccc1Nc1ncc2cc(C)nc(N3CCC(C#N)C3)c2n1` (stereo not drawn), the IC50 was 3 nM. Consider `COc1cc(-c2cnc(C)n2C)ccc1Nc1ncc2cc(C)nc(N3CC(C)(C#N)C3)c2n1`, for which the half-maximal inhibitory concentration (IC50) was 2 nM.
